Results as given in US20250051300A1, “GRAM-NEGATIVE SPECIFIC ANTIBIOTICS SPARING EFFECT ON GUT MICROBIOME” (THE BOARD OF TRUSTEES OF THE UNIVERSITY OF ILLINOIS, priority 2021, published 2025).
≈ marks a conversion by molar mass, not a printed value.

What was measured:
Bacteroides fragilis = assay: MIC, gut commensal bacteria, micro-dilution broth; conditions: Bacteroides fragilis, ATCC25285
Proteus mirabilis = assay: MIC, gut commensal bacteria, micro-dilution broth; conditions: Proteus mirabilis, ATCC35659
Blautia producta = assay: MIC, gut commensal bacteria, micro-dilution broth; conditions: Blautia producta, ATCC27340
Lactobacillus reuteri = assay: MIC, gut commensal bacteria, micro-dilution broth; conditions: Limosilactobacillus reuteri, ATCC23272
[1] = system: Bacteroides cellulosilyticus; assay: MIC, gut commensal bacteria, micro-dilution broth; conditions: Bacteroides cellulosilyticus
[2] = system: Faecalibacterium prausnitzii; assay: MIC, gut commensal bacteria, micro-dilution broth; conditions: Faecalibacterium prausnitzii, ATCC27768
[3] = system: Streptococcus parasanguinis; assay: MIC, gut commensal bacteria, micro-dilution broth; conditions: Streptococcus parasanguinis
gut microbiome = assay: Impact on murine fecal microbiome (16S rRNA sequencing); conditions: oral gavage twice a day for three days; feces at days 0, 7, 10, 31
Enterococcus faecalis = assay: MIC, micro-dilution broth method (CLSI); assay type: cell-based; conditions: Enterococcus faecalis KLE 2341, BHI-ych; read-out: MIC
Streptococcus salivarius = assay: MIC, gut commensal bacteria, micro-dilution broth; conditions: Streptococcus salivarius
Bifidobacterium longum = assay: MIC, gut commensal bacteria, micro-dilution broth; conditions: Bifidobacterium longum, ATCCBAA999
[4] = system: Stenotrophomonas maltophilia; assay: MIC, gut commensal bacteria, micro-dilution broth; conditions: Stenotrophomonas maltophilia, ATCC13637
Bacteroides vulgatus = assay: MIC, gut commensal bacteria, micro-dilution broth; conditions: Phocaeicola vulgatus
Morganella morganii = assay: MIC, gut commensal bacteria, micro-dilution broth; conditions: ATCC25839

Compound	MIC (Bacteroides fragilis)	MIC (Proteus mirabilis)	MIC (Blautia producta)	MIC (Lactobacillus reuteri)	MIC [1]	MIC [2]	MIC [3]	effect on gut microbiome taxonomic composition (gut microbiome)	MIC (Enterococcus faecalis)	MIC (Streptococcus salivarius)	MIC (Bifidobacterium longum)	MIC [4]	MIC (Bacteroides vulgatus)	MIC (Morganella morganii)
CC1(C)S[C@@H]2[C@H](NC(=O)[C@H](N)c3ccc(O)cc3)C(=O)N2[C@H]1C(=O)O [Amoxicillin]	128 mg/L (≈ 350 µM)	0.008 mg/L (≈ 0.0219 µM)	1 mg/L (≈ 2.74 µM)	1 mg/L (≈ 2.74 µM)	> 128 mg/L	64 mg/L (≈ 175 µM)	64 mg/L (≈ 175 µM)	increases in members of Bacteroidia	0.25 mg/L (≈ 0.684 µM)	0.125 mg/L (≈ 0.342 µM)	1 mg/L (≈ 2.74 µM)	> 128 mg/L	2 mg/L (≈ 5.47 µM)	32 mg/L (≈ 87.6 µM)
CCC[C@@H]1C[C@@H](C(=O)N[C@@H]([C@H]2O[C@H](SC)[C@H](O)[C@@H](O)[C@H]2O)[C@H](C)Cl)N(C)C1 [Clindamycin]	4 mg/L (≈ 9.41 µM)	0.125 mg/L (≈ 0.294 µM)	1 mg/L (≈ 2.35 µM)	0.25 mg/L (≈ 0.588 µM)	> 128 mg/L	0.25 mg/L (≈ 0.588 µM)	0.06 mg/L (≈ 0.141 µM)	large decreases in the members of Bacilli and Bacteroidia	1 mg/L (≈ 2.35 µM)	2 mg/L (≈ 4.71 µM)	0.5 mg/L (≈ 1.18 µM)	0.5 mg/L (≈ 1.18 µM)	16 mg/L (≈ 37.6 µM)	> 128 mg/L
